Publication PMC4774972, “Activity and Predicted Nephrotoxicity of Synthetic Antibiotics Based on Polymyxin B” (Journal of Medicinal Chemistry, 2016)
Converted amounts (≈) assume the structure as drawn. Like-named read-outs stand apart in the source and are kept apart here. Bridge positions count the residues as written; N and C are the ends. Square brackets hold non-standard residues; d marks the D form. Peptide text beside a SMILES is read from it. * marks the point of attachment. Phe(4-NH2) = Nc1ccc(C[C@H](N)C(=O)O)cc1; Octanoyl = CCCCCCCC(=O)*; Dab = NCC[C@H](N)C(=O)O

Legend:
[1] = system: P. aeruginosa PA9704, PmxR; format: cell-based, Pseudomonas aeruginosa; details: polymyxin resistant clinical isolate; MHB, 5 × 10^5 CFU/mL, 18 h at 37 °C
Procedure: (§1) Bacteria were either obtained from American Type Culture Collection (ATCC; Manassas, VA, USA) or independent academic clinical isolate collections, as listed in Table S2. Bacteria were cultured in nutrient broth (NB; Bacto Laboratories, catalog no. 234000) or Muller Hinton broth (MHB; Bacto Laboratories, catalog no. 211443) at 37 °C overnight with shaking (∼180 rpm). A sample of each culture was then diluted 50-fold in fresh MHB and incubated at 37 °C for 1.5–3 h with shaking (∼180 rpm). Compound stock solutions were prepared as 0.64 or 2.56 mg/mL in water. The compounds, at twice the final desired concentration, were serially diluted 2-fold across the wells of 96-well plates (Polystyrene, Corning, catalogue No. 3370). Mid log phase bacterial cultures (after 1.5–3 h incubation) were diluted to a final concentration of 5 × 10^5 colony forming units (CFU)/mL, and 50 μL was added to each well giving a final compound concentration range of 32 μg/mL to 0.015 μg/mL (128–0.06 μg/mL for colistin and polymyxin B against the polymyxin resistant clinical isolates). MICs were determined visually after 18 h of incubation at 37 °C, with the MIC defined as the lowest compound concentration at which no bacterial growth was visible.
(§2) Table S2. Bacterial strains used for Minimum Inhibitory Concentration (MIC) […]
(§3) Organism Strain Strain description Strain Source
(§4) Escherichia coli ATCC 25922 FDA strain Seattle 1946 ATCC
(§5) Klebsiella pneumoniae ATCC 13883 Control strain ATCC
(§6) Klebsiella pneumoniae ATCC 700603 Multi-drug resistant ATCC
(§7) Klebsiella pneumoniae BAA-2146 Metallo-beta-lactamase- ATCC
(§8) Acinetobacter baumannii ATCC 19606 Type strain ATCC
(§9) Pseudomonas aeruginosa ATCC 27853 Type strain ATCC
(§10) Pseudomonas aeruginosa FADDI-PA070 Clinical isolate, Nation and Li labs, polymyxin resistant Monash University
(§11) Clinical isolate, Wang Hengzhuang, Pseudomonas aeruginosa PA9704 polymyxin resistant University Hospital of […]
(§12) Ptyela Clinical isolate, Ilias Karaiskos and Acinetobacter baumannii Carbapenem & Helen Giamarellou
(§13) Clinical isolate, Medicine, Hygeia
(§14) Klebsiella pneumoniae Koprana Carbapenem, & General Hospital, […]
(§15) Clinical isolate, (Instituto Dante […]
(§16) polymyxin resistant Cardiologia, São […]

[2] = system: P. aeruginosa FADDI-PA070, PmxR; format: cell-based, Pseudomonas aeruginosa; details: polymyxin resistant clinical isolate; MHB, 5 × 10^5 CFU/mL, 18 h at 37 °C
Procedure: as §1, §2, §3, §4, §5, §6, §7, §8, §9, §10, §11, §12, §13, §14, §15, §16

[3] = system: K. pneumoniae CI Koprana 100650661:1, PmxR; experiment: microbe, parasite or virus in culture; format: cell-based, Klebsiella pneumoniae; details: carbapenem & polymyxin resistant clinical isolate, MHB, 5 × 10^5 CFU/mL, 18 h at 37 °C
[4] = system: K. pneumoniae CI 138-16357-20362, PmxR; experiment: microbe, parasite or virus in culture; format: cell-based, Klebsiella pneumoniae; details: carbapenem & polymyxin resistant clinical isolate, MHB, 5 × 10^5 CFU/mL, 18 h at 37 °C
[5] = system: K. pneumoniae ATCC 13883; experiment: microbe, parasite or virus in culture; format: cell-based, Klebsiella pneumoniae; details: MHB, 5 × 10^5 CFU/mL, read visually after 18 h at 37 °C
[6] = system: primary human renal proximal tubule epithelial (hPT) cells; experiment: Nephrotoxicity assay, GGT release; format: cell-based; details: primary human kidney cells
Excerpt: (§17) Primary human renal proximal tubule epithelial (hPT) cells were isolated and used for in vitro prediction of drug-induced nephrotoxicity[63],[64],[69] by measuring the release of metabolism enzymes, LDH and GGT, as previously described.[70]

[7] = system: A. baumannii ATCC 19606; format: cell-based, Acinetobacter baumannii; details: MHB, 5 × 10^5 CFU/mL, read visually after 18 h at 37 °C
Procedure: as §1, §2, §3, §4, §5, §6, §7, §8, §9, §10, §11, §12, §13, §14, §15, §16

[8] = system: primary human renal proximal tubule epithelial (hPT) cells; experiment: Nephrotoxicity assay, LDH release; format: cell-based; details: primary human kidney cells
Excerpt: as §17

[9] = system: E. coli ATCC 25922; experiment: microbe, parasite or virus in culture; format: cell-based, Escherichia coli; details: MHB, 5 × 10^5 CFU/mL, read visually after 18 h at 37 °C
Procedure: as §1, §2, §3, §4, §5, §6, §7, §8, §9, §10, §11, §12, §13, §14, §15, §16

[10] = system: K. pneumoniae ATTC BAA-2146, NDM-1 pos; format: cell-based, Klebsiella pneumoniae; details: MHB, 5 × 10^5 CFU/mL, read visually after 18 h at 37 °C
Procedure: as §1, §2, §3, §4, §5, §6, §7, §8, §9, §10, §11, §12, §13, §14, §15, §16

[11] = system: K. pneumoniae ATCC 700603, MDR; format: cell-based, Klebsiella pneumoniae; details: MHB, 5 × 10^5 CFU/mL, read visually after 18 h at 37 °C
Procedure: as §1, §2, §3, §4, §5, §6, §7, §8, §9, §10, §11, §12, §13, §14, §15, §16

[12] = system: P. aeruginosa ATCC 27853; experiment: microbe, parasite or virus in culture; format: cell-based, Pseudomonas aeruginosa; details: MHB, 5 × 10^5 CFU/mL, read visually after 18 h at 37 °C
Procedure: as §1, §2, §3, §4, §5, §6, §7, §8, §9, §10, §11, §12, §13, §14, §15, §16

[13] = system: A. baumannii CI Ptyela 100734512:2, PmxR; experiment: microbe, parasite or virus in culture; format: cell-based, Acinetobacter baumannii; details: carbapenem & polymyxin resistant clinical isolate, MHB, 5 × 10^5 CFU/mL, 18 h at 37 °C
[14] = system: S. aureus ATCC 25923, MSSA; experiment: microbe, parasite or virus in culture; format: cell-based, Staphylococcus aureus; details: MHB, 5 × 10^5 CFU/mL, read visually after 18 h at 37 °C
[15] = system: HepG2 cells; experiment: Cytotoxicity assay (resazurin assay); format: cell-based, human; details: 4000 cells/well, 24 h incubation with compound, fluorescence 560/590
[16] = system: HEK293 cells; experiment: Cytotoxicity assay (resazurin assay); format: cell-based, human; details: 4000 cells/well, 24 h incubation with compound, fluorescence 560/590
[17] = system: P. aeruginosa PA9704, PmxR; details: MIC P. aeruginosa PA9704, PmxR (µg/mL)
[18] = system: K. pneumoniae CI Koprana 100650661:1, PmxR; details: MIC K. pneumoniae CI Koprana 100650661:1, PmxR (µg/mL)
[19] = system: K. pneumoniae ATTC BAA-2146, NDM-1 pos; details: MIC K. pneumoniae ATTC BAA-2146, NDM-1 pos (µg/mL)
[20] = system: K. pneumoniae CI 138-16357-20362, PmxR; details: MIC K. pneumoniae CI 138-16357-20362, PmxR (µg/mL)
[21] = system: S. aureus ATCC 25923, MSSA; details: MIC S. aureus ATCC 25923, MSSA (µg/mL)
[22] = system: K. pneumoniae ATCC 13883; details: MIC K. pneumoniae ATCC 13883 (µg/mL)
[23] = system: P. aeruginosa ATCC 27853; details: MIC P. aeruginosa ATCC 27853 (µg/mL)
[24] = system: A. baumannii CI Ptyela 100734512:2, PmxR; details: MIC A. baumannii CI Ptyela 100734512:2, PmxR (µg/mL)
[25] = system: K. pneumoniae ATCC 700603, MDR; details: MIC K. pneumoniae ATCC 700603, MDR(µg/mL)
[26] = system: A. baumannii ATCC 19606; details: MIC A. baumannii ATCC 19606 (µg/mL)
[27] = system: P. aeruginosa FADDI-PA070, PmxR; details: MIC P. aeruginosa FADDI-PA070, PmxR (µg/mL)
[28] = system: E. coli ATCC 25922; details: MIC E. coli ATCC 25922 (µg/mL)
[29] = system: HepG2; details: CC50 HepG2 (µM)

Compound	MIC P. aeruginosa PA9704, PmxR [1] [µg/mL]	MIC P. aeruginosa FADDI-PA070, PmxR [2] [µg/mL]	MIC K. pneumoniae CI Koprana 100650661:1, PmxR [3] [µg/mL]	MIC K. pneumoniae CI 138-16357-20362, PmxR [4] [µg/mL]	MIC K. pneumoniae ATCC 13883 [5] [µg/mL]	GGT release CC50 [6] [µg/mL]	MIC A. baumannii ATCC 19606 [7] [µg/mL]	LDH release CC50 [8] [µg/mL]	MIC K. pneumoniae ATTC BAA-2146, NDM-1 pos [10] [µg/mL]	MIC K. pneumoniae ATCC 700603, MDR [11] [µg/mL]	MIC P. aeruginosa ATCC 27853 [12] [µg/mL]	MIC A. baumannii CI Ptyela 100734512:2, PmxR [13] [µg/mL]	MIC S. aureus ATCC 25923, MSSA [14] [µg/mL]	HepG2 - CC50 [15] [µM]	HEK293 CC50 [16] [µM]	also measured
6Me-C7CO/ 6Me-C6CO Dab Thr Dab Dab Dab D-Leu Leu Dab Dab (lariat or depsi) [Colistin 2, polymyxin E (colistin), macrocyclic lipodecapeptide antibiotic, D-Leu at position-6, reference compound]	128	>32	>128	64	0.25	48	0.25	25	0.25	0.25	0.5	>64	>128	>300	>300	MIC E. coli ATCC 25922 [9]: 0.25 µg/mL
CCCCCCCC(=O)N[C@@H](CCN)C(=O)N[C@H](C(=O)N[C@@H](CCN)C(=O)N[C@H]1CCNC(=O)[C@H]([C@@H](C)O)NC(=O)[C@H](CCN)NC(=O)[C@H](CCN)NC(=O)[C@H](CC(C)C)NC(=O)[C@@H](Cc2ccccc2)NC(=O)[C@H](Cc2ccc(N)cc2)NC1=O)[C@@H](C)O [Compound 34] (Octanoyl-[Dab]T[Dab][Dab][Phe(4-NH2)][dF]L[Dab][Dab]T; lactam 4-C)	–	–	>32	>32	–	–	–	–	>32	–	–	–	–	–	–	MIC [17]: > 32 µg/mL; MIC [18]: > 32 µg/mL; MIC [19]: > 32 µg/mL; MIC [20]: > 32 µg/mL; MIC [21]: > 32 µg/mL; MIC [22]: > 32 µg/mL; MIC [23]: > 32 µg/mL; MIC [24]: > 32 µg/mL; MIC [25]: > 32 µg/mL; MIC [26]: > 32 µg/mL; MIC [27]: > 32 µg/mL; MIC [28]: > 32 µg/mL; CC50 [29]: > 300 µM
CNC(C)C1CCC(N)C(OC2C(N)CC(N)C(OC3OCC(C)(O)C(NC)C3O)C2O)O1 (stereo not drawn) [Gentamicin, reference compound]	–	–	–	–	–	33	–	33	–	–	–	–	–	>300	>300	MIC ([3]; Klebsiella pneumoniae): > 32 µg/mL; MIC ([4]; Klebsiella pneumoniae): 1 µg/mL (≈ 2.09 µM); MIC ([5]; Klebsiella pneumoniae, ATCC13883): 0.25 µg/mL (≈ 0.523 µM); MIC ([9]; Escherichia coli, ATCC25922, 18 h): 0.25 µg/mL (≈ 0.523 µM); MIC ([12]; Pseudomonas aeruginosa, ATCC27853): 1 µg/mL (≈ 2.09 µM); MIC ([13]; Acinetobacter baumannii): > 32 µg/mL
CC[C@H](C)CCCCC(=O)N[C@@H](CCN)C(=O)N[C@H](C(=O)N[C@@H](CCN)C(=O)N[C@H]1CCNC(=O)[C@H]([C@@H](C)O)NC(=O)[C@H](CCN)NC(=O)[C@H](CCN)NC(=O)[C@H](CC(C)C)NC(=O)[C@@H](Cc2ccccc2)NC(=O)[C@H](CCN)NC1=O)[C@@H](C)O [Polymyxin B 1, polymyxin B]	128 (≈ 106 µM)	32 (≈ 26.6 µM)	64 (≈ 53.2 µM)	64 (≈ 53.2 µM)	1 (≈ 0.831 µM)	177	0.25 (≈ 0.208 µM)	23	0.25 (≈ 0.208 µM)	0.5 (≈ 0.415 µM)	0.5 (≈ 0.415 µM)	64 (≈ 53.2 µM)	>64	>300	>300	–
